Laboratory results: patent publication US20240287138A1, “CYCLIC PEPTIDES FOR INHIBITING TNF RECEPTOR 1 ACTIVITY” (Merck Sharp & Dohme LLC, priority 2023, published 2024)
Like-named read-outs stand apart in the source and are kept apart here. Numbered stars: 1 amine (or outer) side, 2 acyl side, 3 side chain; on linkers, the order of the positions; unused ones are H or OH. Bridge positions count the residues as written; N and C are the ends. Square brackets hold non-standard residues; d marks the D form. Peptide text beside a SMILES is read from it. * marks the point of attachment. Trp(βS-Me,7-OMe) = COc1cccc2c([C@H](C)[C@H](N)C(=O)O)c[nH]c12; X34 = O=C([C@H](Cc1c[nH]c2c(Cl)c(F)ccc12)N[*:1])[*:2]; Trp(7-Cl) = N[C@@H](Cc1c[nH]c2c(Cl)cccc12)C(=O)O; Phe(4-CONH2) = NC(=O)c1ccc(C[C@H](N)C(=O)O)cc1; Phe(4-COOH) = N[C@@H](Cc1ccc(C(=O)O)cc1)C(=O)O; Trp(7-aza) = N[C@@H](Cc1c[nH]c2ncccc12)C(=O)O; Trp(1-Me) = Cn1cc(C[C@H](N)C(=O)O)c2ccccc21; Pip(5R-OH) = O=C(O)[C@@H]1CC[C@@H](O)CN1; X1 = O=C([C@@H]1CC[C@H](N[*:1])C1)[*:2]; Pip(4-aza) = O=C(O)[C@@H]1CNCCN1; 4Pal = N[C@@H](Cc1ccncc1)C(=O)O; NMeE = CN[C@@H](CCC(=O)O)C(=O)O; dHyp = O=C(O)[C@H]1C[C@H](O)CN1; Ahp(2) = CCCCC[C@H](N)C(=O)O; αMeS = C[C@](N)(CO)C(=O)O; Carboxymethyl = O=C(O)C*; Nle = CCCC[C@H](N)C(=O)O; Sar = CNCC(=O)O

Key:
[1] = target: T1, human soluble TNFR1 (sTNFR1) (Homo sapiens, UniProt P19438); assay: Human sTNFR1-peptide displacement assay (LanthaScreen Eu TR-FRET binding assay)
T1 construct: made in house; host or cells: Sf21 (baculovirus)
T1 sequence (P19438 with tags, fused parts or gaps): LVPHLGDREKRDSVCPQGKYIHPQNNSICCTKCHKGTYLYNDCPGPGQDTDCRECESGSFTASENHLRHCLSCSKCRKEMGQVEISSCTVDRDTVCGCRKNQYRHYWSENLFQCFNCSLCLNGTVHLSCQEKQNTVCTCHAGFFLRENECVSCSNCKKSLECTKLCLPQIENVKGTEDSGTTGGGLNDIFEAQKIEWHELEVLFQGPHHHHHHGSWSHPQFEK
In short: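 Readout is the 665/615 nm TR-FRET ratio (Eu anti-His donor, streptavidin-Alexa647 acceptor), normalized to DMSO and saturating displacer, fit by Morrison-based five-parameter logistic for Kd^app. His-tagged sTNFR1 (1-211) prebound to 100 nM biotinylated peptide SEQ ID NO.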

[2] = target: T2, human TNFR1 extracellular domain (ECD) protein (Homo sapiens, UniProt P19438); assay: SPR binding affinity to captured human TNFR1 ECD
T2 construct: HRV 3C protease cleavage site (C); 6His (C, cleaved yes); made in house; host or cells: Sf21 insect cells (baculovirus), secreted
T2 sequence (P19438 30-211): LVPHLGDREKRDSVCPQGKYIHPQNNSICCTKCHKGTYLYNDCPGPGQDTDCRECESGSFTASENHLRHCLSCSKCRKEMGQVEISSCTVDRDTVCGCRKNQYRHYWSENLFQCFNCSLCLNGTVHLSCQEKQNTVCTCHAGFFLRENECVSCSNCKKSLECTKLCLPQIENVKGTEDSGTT
In short: (§1)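 Peptides are tested against captured biotin-tagged human TNFR1 ECD, with parallel TNFR2 ECD binding to check selectivity. Buffer: 10 mM HEPES pH 7.4, 150 mM NaCl, 3 mM EDTA, 0.05% P20, 2% DMSO.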

human TNFR2 ECD protein = target: T3, human TNFR2 ECD protein (Homo sapiens, UniProt P20333); assay: SPR off-target binding (selectivity) to human TNFR2 ECD
T3 construct: HRV 3C protease cleavage site (C); 6His (C, cleaved yes); made in house; host or cells: Sf21 insect cells (baculovirus), secreted
T3 sequence (P20333 23-257): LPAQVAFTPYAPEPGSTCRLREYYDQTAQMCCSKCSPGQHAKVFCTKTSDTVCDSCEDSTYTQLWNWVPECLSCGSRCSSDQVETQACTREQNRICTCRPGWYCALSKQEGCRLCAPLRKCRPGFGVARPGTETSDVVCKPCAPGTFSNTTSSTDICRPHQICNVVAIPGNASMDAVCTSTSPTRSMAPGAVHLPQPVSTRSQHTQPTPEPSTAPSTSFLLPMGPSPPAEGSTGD
In short: as §1

[3] = target: T4, TNFα-induced NF-κB signal transduction pathway (TNFR1 signaling) in THP-1 cells (Homo sapiens, UniProt P19438); assay: THP-1 Lucia NF-κB reporter cell assay, inhibition of TNFα-induced NF-κB signaling; format: cell-based; details: THP-1 NF-κB Lucia reporter cells, 10 ng/mL TNFα, 16-18 h, secreted luciferase; read-out: THP-1 IC50
T4 sequence (P19438 30-455): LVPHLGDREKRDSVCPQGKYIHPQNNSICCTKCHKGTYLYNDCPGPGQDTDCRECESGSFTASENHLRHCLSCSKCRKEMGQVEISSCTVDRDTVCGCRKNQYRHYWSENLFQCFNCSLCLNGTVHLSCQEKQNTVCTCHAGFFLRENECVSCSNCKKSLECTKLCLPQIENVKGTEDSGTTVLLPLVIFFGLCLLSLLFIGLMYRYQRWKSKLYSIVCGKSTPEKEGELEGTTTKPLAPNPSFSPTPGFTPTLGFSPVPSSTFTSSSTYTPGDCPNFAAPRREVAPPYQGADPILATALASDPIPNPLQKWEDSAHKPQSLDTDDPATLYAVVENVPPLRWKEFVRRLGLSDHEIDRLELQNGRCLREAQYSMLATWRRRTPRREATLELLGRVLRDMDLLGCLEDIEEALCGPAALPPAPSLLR
In short: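 IC50 from a 4-parameter logistic fit of secreted luciferase luminescence (QUANTI-Luc), normalised to min/max controls. Reporter THP-1 cells were exposed to peptides for 1 h at 37 °C before 10 ng/mL TNFα (final) was added overnight (16–18 h).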

Question: CCCCC[C@@H]1NC(=O)[C@@H]2CC[C@@H](C2)NC(=O)[C@H]([C@@H](C)c2c[nH]c3c(OC)cccc23)NC(=O)CN(C)C(=O)[C@H](Cc2ccc(C(N)=O)cc2)NC(=O)[C@H](Cc2ccc(C(=O)O)cc2)NC(=O)[C@](C)(CO)NC(=O)[C@H](Cc2c[nH]c3c(Cl)c(F)ccc23)NC(=O)[C@H](Cc2ccncc2)NC(=O)[C@H](CC(N)=O)NC(=O)[C@H]2C[C@H](O)CN2C(=O)[C@H](Cc2c[nH]c3ccccc23)NC(=O)[C@@H]2CNCCN2C(=O)[C@H](Cc2ccncc2)NC1=O [SEQ ID NO. 112] (cyclo([4Pal][Pip(4-aza)]W[dHyp]N[4Pal][X34][αMeS][Phe(4-COOH)][Phe(4-CONH2)][Sar][Trp(βS-Me,7-OMe)][X1][Ahp(2)])) was tested. Which Kd [1] did it give?
Answer: 0.24 nM

Question: And the Kd [2]?
Answer: 0.03 nM

Question: And the Kd (human TNFR2 ECD protein)?
Answer: > 1000 nM

Question: For CCCC[C@@H]1NC(=O)CSC[C@@H](C(N)=O)NC(=O)[C@H]([C@@H](C)c2c[nH]c3c(OC)cccc23)NC(=O)CN(C)C(=O)[C@H](Cc2ccc(O)cc2)NC(=O)[C@H](Cc2ccc(C(N)=O)cc2)NC(=O)[C@](C)(CO)NC(=O)[C@H](Cc2c[nH]c3c(Cl)cccc23)NC(=O)[C@H](Cc2ccncc2)NC(=O)[C@H](CC(N)=O)NC(=O)[C@H](CCC(=O)O)N(C)C(=O)[C@H](Cc2cn(C)c3ccccc23)NC(=O)[C@@H]2CC[C@@H](O)CN2C(=O)[C@H](Cc2ccncc2)NC1=O [SEQ ID NO. 151] ({CH2CO}-[Nle][4Pal][Pip(5R-OH)][Trp(1-Me)][NMeE]N[4Pal][Trp(7-Cl)][αMeS][Phe(4-CONH2)]Y[Sar][Trp(βS-Me,7-OMe)]C-NH2; thioether N-14), which IC50 [1] is on record?
Answer: 0.29 nM

Question: And the Kd [1]?
Answer: 0.11 nM

Question: And the Kd [2]?
Answer: 0.04 nM

Question: What about the Kd (human TNFR2 ECD protein) of the same compound?
Answer: > 1000 nM

Question: What does the source list for CCCC[C@@H]1NC(=O)[C@@H]2CC[C@@H](C2)NC(=O)[C@H]([C@@H](C)c2c[nH]c3c(OC)cccc23)NC(=O)CN(C)C(=O)[C@H](Cc2ccc(O)cc2)NC(=O)[C@H](Cc2ccc(C(N)=O)cc2)NC(=O)[C@](C)(CO)NC(=O)[C@H](Cc2c[nH]c3c(Cl)cccc23)NC(=O)[C@H](Cc2ccc(C(=O)O)cc2)NC(=O)[C@H](CC(N)=O)NC(=O)[C@H]2C[C@H](OCC(=O)O)CN2C(=O)[C@H](Cc2c[nH]c3ccccc23)NC(=O)[C@@H]2CNCCN2C(=O)[C@H](Cc2ccncc2)NC1=O [SEQ ID NO. 95] (cyclo([4Pal][Pip(4-aza)]W[dHyp](Carboxymethyl)N[Phe(4-COOH)][Trp(7-Cl)][αMeS][Phe(4-CONH2)]Y[Sar][Trp(βS-Me,7-OMe)][X1][Nle]))?
Answer: Kd [2]: 0.2 nM; Kd (human TNFR2 ECD protein): > 1000 nM; IC50 [3]: 0.7 nM

Question: With CCCC[C@@H]1NC(=O)CSC[C@@H](C(N)=O)NC(=O)[C@H]([C@@H](C)c2c[nH]c3c(OC)cccc23)NC(=O)CN(C)C(=O)[C@H](Cc2ccc(O)cc2)NC(=O)[C@H](Cc2ccc(C(=O)O)cc2)NC(=O)[C@](C)(CO)NC(=O)[C@H](Cc2c[nH]c3c(Cl)cccc23)NC(=O)[C@H](Cc2ccncc2)NC(=O)[C@H](CC(N)=O)NC(=O)[C@H](CCC(=O)O)N(C)C(=O)[C@H](Cc2c[nH]c3ncccc23)NC(=O)[C@@H]2CNCCN2C(=O)[C@H](Cc2ccncc2)NC1=O [SEQ ID NO. 68] ({CH2CO}-[Nle][4Pal][Pip(4-aza)][Trp(7-aza)][NMeE]N[4Pal][Trp(7-Cl)][αMeS][Phe(4-COOH)]Y[Sar][Trp(βS-Me,7-OMe)]C-NH2; thioether N-14) as the compound, how does the Kd ([2]; biotinylated human TNFR1 ECD on streptavidin chip, from kon and koff, read-out: SPR hTNFR1 KD) read?
Answer: 0.55 nM

Question: What about the Kd (human TNFR2 ECD protein; biotinylated human TNFR2 ECD on streptavidin chip, read-out: SPR hTNFR2 KD) of the same compound?
Answer: > 1000 nM

Question: What about the IC50 [3] of the same compound?
Answer: 3 nM
